Source: publication PMC11157767 (Molecular Cancer, 2024)

Tested on: TRIM24-MET-i cells
Details: GSEA, v. DMSO
Description: The number of unique and shared differentially expressed genes between each comparison are shown in parentheses. A linear regression line is depicted along with Pearson’s correlation coefficient (r) and its associated p-value. […] Common negatively enriched genesets between all three comparisons are in bold. c, Heatmaps showing expression of Hallmark_Myc_Target_v1/2 genes for indicated cells and treatment comparisons (TRIM-MET cells were treated in vitro, TFG-MET cells in vivo). Select leading edge genes from GSEA are labeled.

C[C@@H](Oc1cc(-c2cnn(C3CCNCC3)c2)cnc1N)c1c(Cl)ccc(F)c1Cl [Crizotinib]
ES GOCC_MITOCHONDRIAL_ENVELOPE: -0.5203 | ES GOCC_ORGANELLE_INNER_MEMBRANE: -0.5635 | ES GOCC_PRERIBOSOME: -0.8837 | ES GOCC_RIBONUCLEOPROTEIN_COMPLEX: -0.6028 | ES GOCC_RIBOSOME: -0.6378 | ES GOMF_STRUCTURAL_CONSTITUENT_OF_RIBOSOME: -0.6065 | ES HALLMARK_ADIPOGENESIS: -0.3925 | ES HALLMARK_ALLOGRAFT_REJECTION: -0.3891 | ES HALLMARK_ANDROGEN_RESPONSE: -0.4501 | ES HALLMARK_ANGIOGENESIS: -0.5001 | ES HALLMARK_APICAL_JUNCTION: -0.2207 | ES HALLMARK_APICAL_SURFACE: 0.438 | ES HALLMARK_APOPTOSIS: -0.353 | ES HALLMARK_CHOLESTEROL_HOMEOSTASIS: -0.4271 | ES HALLMARK_COAGULATION: -0.3066 | ES HALLMARK_COMPLEMENT: -0.2741 | ES HALLMARK_DNA_REPAIR: -0.3968 | ES HALLMARK_E2F_TARGETS: -0.4061 | ES HALLMARK_EPITHELIAL_MESENCHYMAL_TRANSITION: -0.2384 | ES HALLMARK_ESTROGEN_RESPONSE_EARLY: -0.4462 | ES HALLMARK_ESTROGEN_RESPONSE_LATE: -0.2995 | ES HALLMARK_G2M_CHECKPOINT: -0.4157 | ES HALLMARK_GLYCOLYSIS: -0.4578 | ES HALLMARK_HEDGEHOG_SIGNALING: -0.4357 | ES HALLMARK_HYPOXIA: -0.2949 | ES HALLMARK_IL2_STAT5_SIGNALING: -0.5104 | ES HALLMARK_IL6_JAK_STAT3_SIGNALING: -0.3352 | ES HALLMARK_INFLAMMATORY_RESPONSE: -0.4227 | ES HALLMARK_INTERFERON_ALPHA_RESPONSE: 0.333 | ES HALLMARK_INTERFERON_GAMMA_RESPONSE: -0.2664 | ES HALLMARK_KRAS_SIGNALING_DN: 0.421 | ES HALLMARK_KRAS_SIGNALING_UP: -0.3522 | ES HALLMARK_MITOTIC_SPINDLE: 0.3203 | ES HALLMARK_MTORC1_SIGNALING: -0.615 | ES HALLMARK_MYC_TARGETS_V1: -0.7224 | ES HALLMARK_MYC_TARGETS_V2: -0.8712 | ES HALLMARK_MYOGENESIS: 0.2133 | ES HALLMARK_NOTCH_SIGNALING: -0.3408 | ES HALLMARK_OXIDATIVE_PHOSPHORYLATION: -0.5351 | ES HALLMARK_P53_PATHWAY: -0.3345 | ES HALLMARK_PANCREAS_BETA_CELLS: 0.2531 | ES HALLMARK_PEROXISOME: -0.2701 | ES HALLMARK_PI3K_AKT_MTOR_SIGNALING: -0.3822 | ES HALLMARK_PROTEIN_SECRETION: -0.253 | ES HALLMARK_TGF_BETA_SIGNALING: -0.4216 | ES HALLMARK_TNFA_SIGNALING_VIA_NFKB: -0.4566 | ES HALLMARK_UNFOLDED_PROTEIN_RESPONSE: -0.6894 | ES HALLMARK_UV_RESPONSE_DN: 0.2824 | ES HALLMARK_UV_RESPONSE_UP: -0.4491 | ES HALLMARK_WNT_BETA_CATENIN_SIGNALING: -0.3428 | ES KRIGE_RESPONSE_TO_TOSEDOSTAT_6HR_DN: -0.7282 | ES KRIGE_RESPONSE_TO_TOSEDOSTAT_24HR_DN: -0.7493 | ES LEE_BMP2_TARGETS_DN: -0.726 | ES PUJANA_CHEK2_PCC_NETWORK: -0.6234 | ES WEI_MYCN_TARGETS_WITH_E_BOX: -0.7486 | NES GOBP_NCRNA_PROCESSING: -2.807 | NES GOBP_RIBONUCLEOPROTEIN_COMPLEX_BIOGENESIS: -2.6966 | NES GOBP_RIBOSOME_BIOGENESIS: -2.885 | NES GOCC_MITOCHONDRIAL_ENVELOPE: -1.997 | NES GOCC_ORGANELLE_INNER_MEMBRANE: -2.127 | NES GOCC_PRERIBOSOME: -2.754 | NES GOCC_RIBONUCLEOPROTEIN_COMPLEX: -2.312 | NES GOCC_RIBOSOME: -2.274 | NES GOMF_STRUCTURAL_CONSTITUENT_OF_RIBOSOME: -2.105 | NES HALLMARK_ADIPOGENESIS: -1.373 | NES HALLMARK_ALLOGRAFT_REJECTION: -1.343 | NES HALLMARK_ANDROGEN_RESPONSE: -1.464 | NES HALLMARK_ANGIOGENESIS: -1.355 | NES HALLMARK_APICAL_JUNCTION: -0.7717 | NES HALLMARK_APICAL_SURFACE: 1.391 | NES HALLMARK_APOPTOSIS: -1.211 | NES HALLMARK_CHOLESTEROL_HOMEOSTASIS: -1.341 | NES HALLMARK_COMPLEMENT: -0.9577 | NES HALLMARK_DNA_REPAIR: -1.352 | NES HALLMARK_E2F_TARGETS: -1.43 | NES HALLMARK_EPITHELIAL_MESENCHYMAL_TRANSITION: -0.8343 | NES HALLMARK_ESTROGEN_RESPONSE_EARLY: -1.563 | NES HALLMARK_ESTROGEN_RESPONSE_LATE: -1.046 | NES HALLMARK_G2M_CHECKPOINT: -1.457 | NES HALLMARK_GLYCOLYSIS: -1.603 | NES HALLMARK_HEDGEHOG_SIGNALING: -1.2 | NES HALLMARK_HYPOXIA: -1.03 | NES HALLMARK_IL2_STAT5_SIGNALING: -1.788 | NES HALLMARK_IL6_JAK_STAT3_SIGNALING: -1.065 | NES HALLMARK_INFLAMMATORY_RESPONSE: -1.474 | NES HALLMARK_INTERFERON_ALPHA_RESPONSE: 1.217 | NES HALLMARK_INTERFERON_GAMMA_RESPONSE: -0.9329 | NES HALLMARK_KRAS_SIGNALING_DN: 1.674 | NES HALLMARK_KRAS_SIGNALING_UP: -1.231 | NES HALLMARK_MITOTIC_SPINDLE: 1.318 | NES HALLMARK_MTORC1_SIGNALING: -2.165 | NES HALLMARK_MYC_TARGETS_V1: -2.537 | NES HALLMARK_MYC_TARGETS_V2: -2.6498 | NES HALLMARK_MYOGENESIS: 0.8749 | NES HALLMARK_NOTCH_SIGNALING: -0.9083 | NES HALLMARK_OXIDATIVE_PHOSPHORYLATION: -1.871 | NES HALLMARK_P53_PATHWAY: -1.1707 | NES HALLMARK_PANCREAS_BETA_CELLS: 0.7398 | NES HALLMARK_PEROXISOME: -0.8785 | NES HALLMARK_PI3K_AKT_MTOR_SIGNALING: -1.243 | NES HALLMARK_PROTEIN_SECRETION: -0.8206 | NES HALLMARK_TGF_BETA_SIGNALING: -1.271 | NES HALLMARK_TNFA_SIGNALING_VIA_NFKB: -1.6076 | NES HALLMARK_UNFOLDED_PROTEIN_RESPONSE: -2.272 | NES HALLMARK_UV_RESPONSE_DN: 1.115 | NES HALLMARK_UV_RESPONSE_UP: -1.536 | NES HALLMARK_WNT_BETA_CATENIN_SIGNALING: -0.9746 | NES KRIGE_RESPONSE_TO_TOSEDOSTAT_6HR_DN: -2.811 | NES KRIGE_RESPONSE_TO_TOSEDOSTAT_24HR_DN: -2.908 | NES LEE_BMP2_TARGETS_DN: -2.799 | NES PUJANA_CHEK2_PCC_NETWORK: -2.394 | NES WEI_MYCN_TARGETS_WITH_E_BOX: -2.882
